ChEMBL document CHEMBL1145263, “Redox-responsive and calcium-dependent switching of glycosyldisulfide interactions with Concanavalin A” (Bioorg Med Chem Lett, 2005)

Columns and labels:
[1] = Inhibitory concentration against mannan binding relative to concanavalin A; Using QCM(quartz crystal microbalance) assay; NA= Not active
[2] = (§1) Inhibitory concentration against mannan binding relative to concanavalin A; Using QCM(quartz crystal microbalance) assay
[3] = as §1; remark: listed apart in the source

Structure (SMILES) | IC50 [1] | IC50 [3] [mM] | also measured
COC1O[C@H](CSSCC2O[C@H](OC)C(O)[C@@H](O)[C@@H]2O)C(O)[C@@H](O)[C@@H]1O (stereo partly specified) | Not Active | – | –
OCC1O[C@H](S)C(O)[C@@H](O)[C@@H]1O (stereo partly specified) | – | – | Inhibition [2]: 10 mM
OC[C@H]1OC(O)[C@@H](O)[C@@H](O)[C@@H]1O (stereo partly drawn) [D-MANNOSE] | – | 5.3 | –
CC(=O)NC1[C@@H](O)[C@H](O)C(CO)O[C@H]1SS[C@@H]1OC(CO)[C@@H](O)[C@@H](O)C1NC(C)=O (stereo in doubt) | – | 2 | –
CO[C@H]1O[C@H](CO)[C@@H](O)[C@H](O)[C@@H]1O | – | 1.1 | –
CC(=O)NC1C(O)[C@@H](O)C(CO)O[C@H]1SS[C@@H]1OC(CO)[C@H](O)[C@@H](O)C1NC(C)=O (single isomer, unassigned) | Not Active | – | –
